Data as given in ChEMBL document CHEMBL4507291 (2021).

Legend:
[1] = molecular target: T1, Serine/threonine-protein kinase TBK1 (Homo sapiens) (UniProt Q9UHD2)
T1 sequence (whole entry): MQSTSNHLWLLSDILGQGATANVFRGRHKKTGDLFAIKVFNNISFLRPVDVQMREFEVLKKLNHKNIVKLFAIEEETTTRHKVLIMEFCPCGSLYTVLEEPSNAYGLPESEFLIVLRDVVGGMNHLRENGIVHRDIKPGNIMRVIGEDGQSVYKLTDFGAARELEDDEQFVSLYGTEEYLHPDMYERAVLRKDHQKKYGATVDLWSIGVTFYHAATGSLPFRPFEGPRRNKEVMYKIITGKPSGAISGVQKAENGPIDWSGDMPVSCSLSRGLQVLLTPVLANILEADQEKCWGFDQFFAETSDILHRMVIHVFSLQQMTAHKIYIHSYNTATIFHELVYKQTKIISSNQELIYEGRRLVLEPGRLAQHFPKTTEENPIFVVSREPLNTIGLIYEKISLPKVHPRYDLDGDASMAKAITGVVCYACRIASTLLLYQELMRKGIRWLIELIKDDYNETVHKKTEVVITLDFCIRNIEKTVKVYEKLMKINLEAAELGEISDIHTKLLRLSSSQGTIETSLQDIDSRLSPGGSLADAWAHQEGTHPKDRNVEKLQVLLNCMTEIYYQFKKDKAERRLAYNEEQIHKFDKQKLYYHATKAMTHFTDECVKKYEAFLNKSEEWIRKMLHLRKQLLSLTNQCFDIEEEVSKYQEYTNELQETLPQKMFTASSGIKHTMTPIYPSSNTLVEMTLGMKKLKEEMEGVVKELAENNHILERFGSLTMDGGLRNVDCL

[2] = molecular target: Ephrin type-B receptor 6 (Homo sapiens) (UniProt O15197)
[3] = molecular target: Serine/threonine-protein kinase SIK3 (Homo sapiens) (UniProt Q9Y2K2)
[4] = test system: Fibroblast growth factor receptor 3 (Homo sapiens), P22607 [G697C]
[5] = molecular target: Mitogen-activated protein kinase 10 (Homo sapiens) (UniProt P53779)
[6] = molecular target: T2, Ephrin type-A receptor 1 (Homo sapiens) (UniProt P21709)
T2 sequence (whole entry): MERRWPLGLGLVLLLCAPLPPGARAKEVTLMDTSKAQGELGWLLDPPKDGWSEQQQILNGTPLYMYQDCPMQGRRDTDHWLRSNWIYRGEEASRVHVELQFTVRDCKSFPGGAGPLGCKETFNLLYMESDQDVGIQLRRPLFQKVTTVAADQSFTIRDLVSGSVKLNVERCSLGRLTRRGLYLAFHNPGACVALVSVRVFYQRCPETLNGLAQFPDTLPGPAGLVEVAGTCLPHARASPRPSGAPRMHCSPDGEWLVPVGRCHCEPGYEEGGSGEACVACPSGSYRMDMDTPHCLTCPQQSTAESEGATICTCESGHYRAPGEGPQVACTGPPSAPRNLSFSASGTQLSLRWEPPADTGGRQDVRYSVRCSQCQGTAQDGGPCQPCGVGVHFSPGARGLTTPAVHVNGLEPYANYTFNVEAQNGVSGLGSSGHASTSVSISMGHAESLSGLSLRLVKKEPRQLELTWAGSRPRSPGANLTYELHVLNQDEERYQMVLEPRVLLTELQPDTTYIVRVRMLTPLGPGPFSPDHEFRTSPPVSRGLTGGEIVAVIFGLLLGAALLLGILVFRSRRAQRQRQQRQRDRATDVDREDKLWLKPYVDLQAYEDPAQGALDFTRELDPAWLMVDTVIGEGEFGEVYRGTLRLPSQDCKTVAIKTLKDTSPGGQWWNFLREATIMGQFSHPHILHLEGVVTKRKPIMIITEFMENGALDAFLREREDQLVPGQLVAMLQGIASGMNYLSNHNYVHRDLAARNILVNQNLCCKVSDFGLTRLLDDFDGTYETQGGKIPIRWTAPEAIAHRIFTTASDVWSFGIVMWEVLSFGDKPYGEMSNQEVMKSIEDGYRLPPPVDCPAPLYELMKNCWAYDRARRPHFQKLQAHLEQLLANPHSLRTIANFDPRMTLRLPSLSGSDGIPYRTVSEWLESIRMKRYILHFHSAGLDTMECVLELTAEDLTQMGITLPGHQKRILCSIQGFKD

[7] = molecular target: Activin receptor type-1-like (Homo sapiens) (UniProt P37023)
[8] = molecular target: Serine/threonine-protein kinase Nek6 (Homo sapiens) (UniProt Q9HC98)
[9] = molecular target: Phosphatidylinositol 3-kinase catalytic subunit type 3 (Homo sapiens) (UniProt Q8NEB9)
[10] = molecular target: 5'-AMP-activated protein kinase catalytic subunit alpha-2 (Homo sapiens) (UniProt P54646)
[11] = molecular target: T3, Discoidin domain-containing receptor 2 (Homo sapiens) (UniProt Q16832)
T3 sequence (whole entry): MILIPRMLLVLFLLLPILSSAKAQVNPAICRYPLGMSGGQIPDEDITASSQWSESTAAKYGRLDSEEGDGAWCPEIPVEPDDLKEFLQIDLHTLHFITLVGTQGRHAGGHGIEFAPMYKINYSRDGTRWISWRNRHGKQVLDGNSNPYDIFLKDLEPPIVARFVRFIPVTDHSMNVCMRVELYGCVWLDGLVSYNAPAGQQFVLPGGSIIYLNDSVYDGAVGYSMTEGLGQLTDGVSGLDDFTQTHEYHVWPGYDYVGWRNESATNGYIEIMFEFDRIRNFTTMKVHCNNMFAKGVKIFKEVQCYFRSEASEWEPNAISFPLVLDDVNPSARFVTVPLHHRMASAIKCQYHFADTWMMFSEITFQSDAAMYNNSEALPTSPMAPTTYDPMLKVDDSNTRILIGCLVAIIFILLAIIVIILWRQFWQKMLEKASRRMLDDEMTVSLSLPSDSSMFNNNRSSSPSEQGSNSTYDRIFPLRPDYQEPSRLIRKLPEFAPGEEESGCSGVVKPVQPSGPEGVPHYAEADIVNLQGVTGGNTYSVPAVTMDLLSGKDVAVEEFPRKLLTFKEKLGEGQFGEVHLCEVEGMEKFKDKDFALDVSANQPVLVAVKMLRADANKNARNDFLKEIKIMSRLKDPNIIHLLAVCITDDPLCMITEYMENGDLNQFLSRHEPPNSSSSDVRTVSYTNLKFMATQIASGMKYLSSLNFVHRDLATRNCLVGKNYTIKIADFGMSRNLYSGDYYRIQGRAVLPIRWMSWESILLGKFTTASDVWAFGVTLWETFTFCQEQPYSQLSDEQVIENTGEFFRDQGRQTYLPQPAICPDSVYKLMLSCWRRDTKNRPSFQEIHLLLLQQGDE

[12] = Compound concentration 100.0 nM
[13] = Compound concentration 1000.0 nM

Measured: residual activity

Fibroblast growth factor receptor 3 (Homo sapiens), P22607 [G697C], sequence (P22607 whole entry G697C): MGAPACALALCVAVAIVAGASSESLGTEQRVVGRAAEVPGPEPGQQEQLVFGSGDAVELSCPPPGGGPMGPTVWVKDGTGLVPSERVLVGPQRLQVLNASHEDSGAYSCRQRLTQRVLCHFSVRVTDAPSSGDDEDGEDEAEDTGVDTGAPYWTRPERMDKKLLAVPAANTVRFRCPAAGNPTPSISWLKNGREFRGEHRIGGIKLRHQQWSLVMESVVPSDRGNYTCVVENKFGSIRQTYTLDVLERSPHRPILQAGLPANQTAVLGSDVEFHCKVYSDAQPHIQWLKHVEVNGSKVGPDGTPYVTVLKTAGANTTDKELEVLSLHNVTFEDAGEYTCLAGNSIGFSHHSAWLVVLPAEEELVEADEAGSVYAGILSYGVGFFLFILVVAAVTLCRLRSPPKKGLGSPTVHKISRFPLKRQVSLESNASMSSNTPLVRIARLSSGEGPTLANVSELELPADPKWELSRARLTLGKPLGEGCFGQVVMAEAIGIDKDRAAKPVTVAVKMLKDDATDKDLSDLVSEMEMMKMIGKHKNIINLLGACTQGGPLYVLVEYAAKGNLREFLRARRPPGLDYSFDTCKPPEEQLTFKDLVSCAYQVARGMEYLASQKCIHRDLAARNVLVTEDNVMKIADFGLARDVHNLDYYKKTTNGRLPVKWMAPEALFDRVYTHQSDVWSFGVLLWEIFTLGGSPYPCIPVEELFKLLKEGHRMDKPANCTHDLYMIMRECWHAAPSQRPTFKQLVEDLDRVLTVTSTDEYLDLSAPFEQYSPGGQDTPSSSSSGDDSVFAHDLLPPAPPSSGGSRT
Activin receptor type-1-like (Homo sapiens), sequence (P37023 whole entry): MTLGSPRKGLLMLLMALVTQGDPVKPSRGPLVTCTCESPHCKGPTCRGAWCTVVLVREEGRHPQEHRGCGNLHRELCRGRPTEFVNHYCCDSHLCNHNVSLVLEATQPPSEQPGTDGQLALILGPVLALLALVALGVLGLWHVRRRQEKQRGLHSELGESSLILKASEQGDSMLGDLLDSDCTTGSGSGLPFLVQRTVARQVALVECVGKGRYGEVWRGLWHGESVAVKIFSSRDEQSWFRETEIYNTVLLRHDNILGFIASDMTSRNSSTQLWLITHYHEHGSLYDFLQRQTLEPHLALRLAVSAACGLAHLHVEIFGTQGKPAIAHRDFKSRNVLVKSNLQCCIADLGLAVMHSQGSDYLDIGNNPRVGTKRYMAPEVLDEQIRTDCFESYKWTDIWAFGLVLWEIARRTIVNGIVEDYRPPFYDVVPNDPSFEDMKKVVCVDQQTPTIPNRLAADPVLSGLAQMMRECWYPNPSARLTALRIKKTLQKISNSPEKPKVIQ
Serine/threonine-protein kinase SIK3 (Homo sapiens), sequence (Q9Y2K2 whole entry, looked up): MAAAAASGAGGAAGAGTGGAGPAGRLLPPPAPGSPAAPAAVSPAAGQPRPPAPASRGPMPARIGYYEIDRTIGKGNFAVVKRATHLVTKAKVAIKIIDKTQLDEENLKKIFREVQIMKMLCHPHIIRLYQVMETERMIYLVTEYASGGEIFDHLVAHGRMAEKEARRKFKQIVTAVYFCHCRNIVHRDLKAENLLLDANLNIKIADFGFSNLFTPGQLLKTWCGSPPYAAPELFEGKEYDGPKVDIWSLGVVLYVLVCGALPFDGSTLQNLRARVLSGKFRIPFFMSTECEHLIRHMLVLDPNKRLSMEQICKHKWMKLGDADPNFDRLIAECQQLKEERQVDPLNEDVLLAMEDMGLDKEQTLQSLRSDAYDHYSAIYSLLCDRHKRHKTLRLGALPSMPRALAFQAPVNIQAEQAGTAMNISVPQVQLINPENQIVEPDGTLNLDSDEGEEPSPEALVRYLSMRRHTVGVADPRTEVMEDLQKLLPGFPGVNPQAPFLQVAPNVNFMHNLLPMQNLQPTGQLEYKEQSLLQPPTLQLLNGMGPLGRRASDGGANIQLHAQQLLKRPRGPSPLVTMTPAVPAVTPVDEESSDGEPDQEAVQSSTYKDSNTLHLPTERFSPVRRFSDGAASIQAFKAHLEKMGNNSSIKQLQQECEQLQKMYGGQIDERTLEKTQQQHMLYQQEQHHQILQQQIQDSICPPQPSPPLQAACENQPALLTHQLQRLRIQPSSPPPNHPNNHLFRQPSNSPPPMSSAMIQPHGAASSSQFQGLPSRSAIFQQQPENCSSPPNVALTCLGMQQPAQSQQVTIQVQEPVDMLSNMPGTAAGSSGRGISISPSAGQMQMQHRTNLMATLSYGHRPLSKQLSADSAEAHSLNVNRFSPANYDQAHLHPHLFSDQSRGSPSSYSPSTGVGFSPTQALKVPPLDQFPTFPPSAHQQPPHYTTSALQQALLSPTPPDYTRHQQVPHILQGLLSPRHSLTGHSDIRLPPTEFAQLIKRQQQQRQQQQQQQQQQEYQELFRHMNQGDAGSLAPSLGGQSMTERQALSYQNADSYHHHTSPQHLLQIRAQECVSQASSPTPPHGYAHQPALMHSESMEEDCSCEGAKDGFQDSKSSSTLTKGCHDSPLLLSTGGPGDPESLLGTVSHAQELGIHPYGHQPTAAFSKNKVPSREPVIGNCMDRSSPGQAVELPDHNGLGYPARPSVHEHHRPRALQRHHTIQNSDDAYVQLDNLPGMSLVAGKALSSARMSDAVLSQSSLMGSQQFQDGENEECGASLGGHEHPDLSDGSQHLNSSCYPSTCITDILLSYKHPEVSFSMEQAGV
Phosphatidylinositol 3-kinase catalytic subunit type 3 (Homo sapiens), sequence (Q8NEB9 whole entry): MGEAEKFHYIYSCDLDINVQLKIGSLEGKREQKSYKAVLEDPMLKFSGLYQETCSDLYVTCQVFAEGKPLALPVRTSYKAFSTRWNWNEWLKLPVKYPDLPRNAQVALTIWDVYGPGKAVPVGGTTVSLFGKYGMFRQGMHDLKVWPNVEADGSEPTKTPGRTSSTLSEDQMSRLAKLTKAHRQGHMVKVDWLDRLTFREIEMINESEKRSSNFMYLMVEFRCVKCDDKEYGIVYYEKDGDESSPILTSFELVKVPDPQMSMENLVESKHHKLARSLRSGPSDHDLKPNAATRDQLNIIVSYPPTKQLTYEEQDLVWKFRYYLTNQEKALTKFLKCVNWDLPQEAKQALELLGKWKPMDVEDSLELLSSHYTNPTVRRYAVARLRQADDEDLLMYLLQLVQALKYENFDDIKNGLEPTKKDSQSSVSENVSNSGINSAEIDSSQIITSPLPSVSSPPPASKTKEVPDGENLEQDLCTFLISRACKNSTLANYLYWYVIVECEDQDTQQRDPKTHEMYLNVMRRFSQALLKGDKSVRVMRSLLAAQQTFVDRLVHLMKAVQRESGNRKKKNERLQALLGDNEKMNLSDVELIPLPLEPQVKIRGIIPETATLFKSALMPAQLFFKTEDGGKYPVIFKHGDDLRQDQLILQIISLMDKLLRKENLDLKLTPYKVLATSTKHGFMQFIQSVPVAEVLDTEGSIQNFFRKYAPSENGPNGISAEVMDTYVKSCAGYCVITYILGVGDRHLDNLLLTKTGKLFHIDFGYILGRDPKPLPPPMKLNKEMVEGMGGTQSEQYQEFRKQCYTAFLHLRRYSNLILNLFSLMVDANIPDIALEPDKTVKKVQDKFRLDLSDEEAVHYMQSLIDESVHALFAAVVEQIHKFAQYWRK
Mitogen-activated protein kinase 10 (Homo sapiens), sequence (P53779 whole entry): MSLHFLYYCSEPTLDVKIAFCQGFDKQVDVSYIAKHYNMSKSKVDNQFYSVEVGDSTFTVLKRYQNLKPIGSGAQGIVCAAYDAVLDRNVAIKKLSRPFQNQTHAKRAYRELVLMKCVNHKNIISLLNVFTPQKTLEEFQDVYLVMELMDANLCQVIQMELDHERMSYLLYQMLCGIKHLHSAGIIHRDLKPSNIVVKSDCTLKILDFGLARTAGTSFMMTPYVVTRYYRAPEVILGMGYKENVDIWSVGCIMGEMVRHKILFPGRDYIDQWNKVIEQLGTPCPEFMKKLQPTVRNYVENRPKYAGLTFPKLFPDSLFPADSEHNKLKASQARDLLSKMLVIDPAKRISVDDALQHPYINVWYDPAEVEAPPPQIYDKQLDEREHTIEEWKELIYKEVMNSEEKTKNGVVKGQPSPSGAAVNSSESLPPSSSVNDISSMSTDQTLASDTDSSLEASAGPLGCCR
Serine/threonine-protein kinase Nek6 (Homo sapiens), sequence (Q9HC98 whole entry): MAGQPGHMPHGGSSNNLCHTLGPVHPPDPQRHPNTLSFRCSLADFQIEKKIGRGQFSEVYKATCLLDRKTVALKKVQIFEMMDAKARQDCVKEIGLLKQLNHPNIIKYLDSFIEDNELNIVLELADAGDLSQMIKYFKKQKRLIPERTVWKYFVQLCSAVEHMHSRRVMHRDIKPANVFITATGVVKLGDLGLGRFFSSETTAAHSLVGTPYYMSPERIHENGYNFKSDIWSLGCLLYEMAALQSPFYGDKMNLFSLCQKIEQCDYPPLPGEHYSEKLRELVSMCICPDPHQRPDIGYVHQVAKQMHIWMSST
5'-AMP-activated protein kinase catalytic subunit alpha-2 (Homo sapiens), sequence (P54646 whole entry, looked up, the tested form may be a part): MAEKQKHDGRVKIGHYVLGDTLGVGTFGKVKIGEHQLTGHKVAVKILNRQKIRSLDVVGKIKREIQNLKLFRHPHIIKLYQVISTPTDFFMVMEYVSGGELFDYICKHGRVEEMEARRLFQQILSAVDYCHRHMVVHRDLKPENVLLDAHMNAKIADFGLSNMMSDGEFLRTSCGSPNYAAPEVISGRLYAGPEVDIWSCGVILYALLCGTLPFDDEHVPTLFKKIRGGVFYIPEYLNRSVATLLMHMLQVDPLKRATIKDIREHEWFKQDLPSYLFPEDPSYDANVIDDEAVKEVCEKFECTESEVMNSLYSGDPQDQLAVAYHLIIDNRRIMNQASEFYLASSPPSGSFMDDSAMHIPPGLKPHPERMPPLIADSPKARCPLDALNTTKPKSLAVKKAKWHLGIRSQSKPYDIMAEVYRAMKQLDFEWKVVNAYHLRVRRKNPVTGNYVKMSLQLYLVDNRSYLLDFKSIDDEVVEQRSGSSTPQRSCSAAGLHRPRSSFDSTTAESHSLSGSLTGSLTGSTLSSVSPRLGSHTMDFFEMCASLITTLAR

C[C@@H]1CN(c2cc(-c3n[nH]c4ccc(OC5(C)CC5)cc34)ncn2)C[C@H](C)O1 [MLi-2]
inactive: [1]; [12] 68% | [2]; [12] 91% | [3]; [12] 74% | [4]; [12] 86% | [5]; [12] 77% | [6]; [12] 76% | [7]; [12] 94% | [8]; [12] 100% | [9]; [12] 100% | [10]; [12] 100% | [11]; [12] 82%

C[C@@H]1CN(c2cc(-c3nn(C)c4ccc(OC5(C)CC5)cc34)ncn2)C[C@H](C)O1 [MLi-2-NC]
inactive: [1]; [13] 75% | [2]; [13] 100% | [3]; [13] 63% | [4]; [13] 100% | [5]; [13] 71% | [6]; [13] 100% | [7]; [13] 63% | [8]; [13] 100% | [9]; [13] 86% | [10]; [13] 100% | [11]; [13] 79%
